Data reported in the supplement of paper PMC10307832.

How the values were obtained:
Experiment in all cases: relative viability (nuclei count vs DMSO), 5 days (fraction); higher = more cells survive
Bleomycin + Trametinib = compound: CC1=C(N=C(N=C1N)[C@H](CC(=O)N)NC[C@@H](C(=O)N)N)C(=O)N[C@@H]([C@H](C2=CN=CN2)OC3C(C(C(C(O3)CO)O)O)OC4C(C(C(C(O4)CO)O)OC(=O)N)O)C(=O)N[C@H](C)[C@H]([C@H](C)C(=O)N[C@@H]([C@@H](C)O)C(=O)NCCC5=NC(=CS5)C6=NC(=CS6)C(=O)NCCC[S+](C)C)O [Bleomycin] + CC(=O)Nc1cccc(-n2c(=O)n(C3CC3)c(=O)c3c(Nc4ccc(I)cc4F)n(C)c(=O)c(C)c32)c1 [Trametinib] (partner 0.02 µM); settings: main component drawn
How it was run: (§1)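 Dosing by pin tool came one day after lung cancer cell lines were seeded in 1536-well plates, using either one drug or a fixed anchor-drug dose plus five library-drug doses (not always all listed) in √10 steps. After 5 days, nuclei were counted on 4× images. Relative viability is treated-well nuclei count divided by vehicle-well nuclei count, and values are medians of duplicate plates.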

Bleomycin + Luminespib = compound: CC1=C(N=C(N=C1N)[C@H](CC(=O)N)NC[C@@H](C(=O)N)N)C(=O)N[C@@H]([C@H](C2=CN=CN2)OC3C(C(C(C(O3)CO)O)O)OC4C(C(C(C(O4)CO)O)OC(=O)N)O)C(=O)N[C@H](C)[C@H]([C@H](C)C(=O)N[C@@H]([C@@H](C)O)C(=O)NCCC5=NC(=CS5)C6=NC(=CS6)C(=O)NCCC[S+](C)C)O [Bleomycin] + CCNC(=O)c1noc(-c2cc(C(C)C)c(O)cc2O)c1-c1ccc(CN2CCOCC2)cc1 [Luminespib] (partner 0.01 µM); settings: main component drawn
How it was run: as §1

Etoposide + Pictilisib = compound: COc1cc([C@@H]2c3cc4c(cc3[C@@H](O[C@@H]3O[C@@H]5CO[C@@H](C)O[C@H]5[C@H](O)[C@H]3O)[C@H]3COC(=O)[C@H]23)OCO4)cc(OC)c1O [Etoposide] + CS(=O)(=O)N1CCN(Cc2cc3nc(-c4cccc5[nH]ncc45)nc(N4CCOCC4)c3s2)CC1 [Pictilisib] (partner 1 µM)
How it was run: as §1

Etoposide + Olaparib = compound: COc1cc([C@@H]2c3cc4c(cc3[C@@H](O[C@@H]3O[C@@H]5CO[C@@H](C)O[C@H]5[C@H](O)[C@H]3O)[C@H]3COC(=O)[C@H]23)OCO4)cc(OC)c1O [Etoposide] + O=C(c1cc(Cc2n[nH]c(=O)c3ccccc23)ccc1F)N1CCN(C(=O)C2CC2)CC1 [Olaparib] (partner 8 µM)
How it was run: as §1

## NCI-H1915
Bleomycin + Trametinib; first compound 0.01 µM
  relative viability: 0.282
Bleomycin + Trametinib; first compound 0.03162 µM
  relative viability: 0.295
Bleomycin + Trametinib; first compound 0.1 µM
  relative viability: 0.215
Bleomycin + Trametinib; first compound 0.3162 µM
  relative viability: 0.165
Bleomycin + Trametinib; first compound 1 µM
  relative viability: 0.128
Bleomycin + Luminespib; first compound 0.01 µM
  relative viability: 0.533
Bleomycin + Luminespib; first compound 0.03162 µM
  relative viability: 0.568
Bleomycin + Luminespib; first compound 0.1 µM
  relative viability: 0.398
Bleomycin + Luminespib; first compound 0.3162 µM
  relative viability: 0.235
Bleomycin + Luminespib; first compound 1 µM
  relative viability: 0.145
Etoposide + Pictilisib; first compound 0.01 µM
  relative viability: 0.934
Etoposide + Pictilisib; first compound 0.03162 µM
  relative viability: 1.14
Etoposide + Pictilisib; first compound 0.1 µM
  relative viability: 0.634
Etoposide + Pictilisib; first compound 0.3162 µM
  relative viability: 0.782
Etoposide + Pictilisib; first compound 1 µM
  relative viability: 0.481
Etoposide + Olaparib; first compound 0.01 µM
  relative viability: 0.261
Etoposide + Olaparib; first compound 0.03162 µM
  relative viability: 0.268
Etoposide + Olaparib; first compound 0.1 µM
  relative viability: 0.309
Etoposide + Olaparib; first compound 0.3162 µM
  relative viability: 0.213
Etoposide + Olaparib; first compound 1 µM
  relative viability: 0.194

## NCI-H1944
Bleomycin + Trametinib; first compound 0.01 µM
  relative viability: 0.319
Bleomycin + Trametinib; first compound 0.03162 µM
  relative viability: 0.255
Bleomycin + Trametinib; first compound 0.1 µM
  relative viability: 0.276
Bleomycin + Trametinib; first compound 0.3162 µM
  relative viability: 0.234
Bleomycin + Trametinib; first compound 1 µM
  relative viability: 0.165
Bleomycin + Luminespib; first compound 0.01 µM
  relative viability: 0.363
Bleomycin + Luminespib; first compound 0.03162 µM
  relative viability: 0.318
Bleomycin + Luminespib; first compound 0.1 µM
  relative viability: 0.269
Bleomycin + Luminespib; first compound 0.3162 µM
  relative viability: 0.176
Bleomycin + Luminespib; first compound 1 µM
  relative viability: 0.148
Etoposide + Pictilisib; first compound 0.01 µM
  relative viability: 0.362
Etoposide + Pictilisib; first compound 0.03162 µM
  relative viability: 0.39
Etoposide + Pictilisib; first compound 0.1 µM
  relative viability: 0.27
Etoposide + Pictilisib; first compound 0.3162 µM
  relative viability: 0.294
Etoposide + Pictilisib; first compound 1 µM
  relative viability: 0.222
Etoposide + Olaparib; first compound 0.01 µM
  relative viability: 0.378
Etoposide + Olaparib; first compound 0.03162 µM
  relative viability: 0.417
Etoposide + Olaparib; first compound 0.1 µM
  relative viability: 0.305
Etoposide + Olaparib; first compound 0.3162 µM
  relative viability: 0.265
Etoposide + Olaparib; first compound 1 µM
  relative viability: 0.197

## NCI-H1975
Bleomycin + Trametinib; first compound 0.01 µM
  relative viability: 0.326
Bleomycin + Trametinib; first compound 0.03162 µM
  relative viability: 0.284
Bleomycin + Trametinib; first compound 0.1 µM
  relative viability: 0.327
Bleomycin + Trametinib; first compound 0.3162 µM
  relative viability: 0.226
Bleomycin + Trametinib; first compound 1 µM
  relative viability: 0.152
Bleomycin + Luminespib; first compound 0.01 µM
  relative viability: 0.29
Bleomycin + Luminespib; first compound 0.03162 µM
  relative viability: 0.168
Bleomycin + Luminespib; first compound 0.1 µM
  relative viability: 0.177
Bleomycin + Luminespib; first compound 0.3162 µM
  relative viability: 0.164
Bleomycin + Luminespib; first compound 1 µM
  relative viability: 0.178
Etoposide + Pictilisib; first compound 0.01 µM
  relative viability: 0.304
Etoposide + Pictilisib; first compound 0.03162 µM
  relative viability: 0.328
Etoposide + Pictilisib; first compound 0.1 µM
  relative viability: 0.225
Etoposide + Pictilisib; first compound 0.3162 µM
  relative viability: 0.276
Etoposide + Pictilisib; first compound 1 µM
  relative viability: 0.168
Etoposide + Olaparib; first compound 0.01 µM
  relative viability: 0.688
Etoposide + Olaparib; first compound 0.03162 µM
  relative viability: 1.02
Etoposide + Olaparib; first compound 0.1 µM
  relative viability: 0.881
Etoposide + Olaparib; first compound 0.3162 µM
  relative viability: 0.487
Etoposide + Olaparib; first compound 1 µM
  relative viability: 0.252

## NCI-H1993
Bleomycin + Trametinib; first compound 0.01 µM
  relative viability: 0.493
Bleomycin + Trametinib; first compound 0.03162 µM
  relative viability: 0.476
Bleomycin + Trametinib; first compound 0.1 µM
  relative viability: 0.459
Bleomycin + Trametinib; first compound 0.3162 µM
  relative viability: 0.391
Bleomycin + Trametinib; first compound 1 µM
  relative viability: 0.346
Bleomycin + Luminespib; first compound 0.01 µM
  relative viability: 0.738
Bleomycin + Luminespib; first compound 0.03162 µM
  relative viability: 0.497
Bleomycin + Luminespib; first compound 0.1 µM
  relative viability: 0.716
Bleomycin + Luminespib; first compound 0.3162 µM
  relative viability: 0.57
Bleomycin + Luminespib; first compound 1 µM
  relative viability: 0.41
Etoposide + Pictilisib; first compound 0.01 µM
  relative viability: 0.804
Etoposide + Pictilisib; first compound 0.03162 µM
  relative viability: 0.802
Etoposide + Pictilisib; first compound 0.1 µM
  relative viability: 0.806
Etoposide + Pictilisib; first compound 0.3162 µM
  relative viability: 0.915
Etoposide + Pictilisib; first compound 1 µM
  relative viability: 0.66
Etoposide + Olaparib; first compound 0.03162 µM
  relative viability: 0.884
Etoposide + Olaparib; first compound 0.1 µM
  relative viability: 0.777
Etoposide + Olaparib; first compound 0.3162 µM
  relative viability: 0.658
Etoposide + Olaparib; first compound 1 µM
  relative viability: 0.54
